Reference: ChEMBL document CHEMBL1201862, “PubChem BioAssay data set” (2004)
Active and inactive are the calls of the source.

Legend:
[1] = biological target: T1, Hexokinase HKDC1 (Homo sapiens, UniProt Q2TB90); experiment: activation of HKDC1 glucose phosphorylation – biochemical, W721R variant, dose response (AID 504730); type: functional
T1 sequence (Q2TB90 whole entry): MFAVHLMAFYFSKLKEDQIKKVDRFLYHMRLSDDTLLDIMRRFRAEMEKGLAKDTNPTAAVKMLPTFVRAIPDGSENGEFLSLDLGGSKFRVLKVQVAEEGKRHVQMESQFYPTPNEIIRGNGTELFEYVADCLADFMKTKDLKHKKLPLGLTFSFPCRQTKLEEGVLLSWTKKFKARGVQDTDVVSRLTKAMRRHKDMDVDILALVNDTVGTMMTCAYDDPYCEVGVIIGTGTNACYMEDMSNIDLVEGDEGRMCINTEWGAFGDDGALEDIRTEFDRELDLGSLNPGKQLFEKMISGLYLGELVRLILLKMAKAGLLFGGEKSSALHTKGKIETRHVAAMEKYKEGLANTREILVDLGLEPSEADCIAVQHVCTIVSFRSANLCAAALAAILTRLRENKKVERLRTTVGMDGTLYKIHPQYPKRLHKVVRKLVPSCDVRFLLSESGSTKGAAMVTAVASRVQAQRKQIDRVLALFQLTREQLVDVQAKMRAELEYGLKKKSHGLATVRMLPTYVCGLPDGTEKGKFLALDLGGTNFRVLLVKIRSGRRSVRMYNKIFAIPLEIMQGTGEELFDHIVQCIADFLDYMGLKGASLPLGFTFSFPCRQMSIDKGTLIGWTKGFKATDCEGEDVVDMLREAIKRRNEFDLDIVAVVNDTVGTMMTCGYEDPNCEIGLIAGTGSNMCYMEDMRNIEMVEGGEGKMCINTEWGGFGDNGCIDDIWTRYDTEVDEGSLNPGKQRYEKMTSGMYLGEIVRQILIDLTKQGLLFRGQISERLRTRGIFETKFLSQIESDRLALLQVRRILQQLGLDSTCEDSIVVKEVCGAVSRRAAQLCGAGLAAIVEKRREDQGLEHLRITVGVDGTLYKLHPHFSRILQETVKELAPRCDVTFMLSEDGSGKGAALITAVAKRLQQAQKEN

[2] = biological target: Hexokinase-1 (Homo sapiens, UniProt P19367); experiment: HK1 enzyme activation by HKDC1 hits – biochemical, selectivity assay for HKDC1 activator project, dose response (AID 504762); type: functional
[3] = system: INS1; experiment: INS-1E survival protection against cytokine death – cell-based, luminescence, retest, dose response (AID 449756); type: functional; conditions: Rattus norvegicus;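 also: cell death triggered by IL-1 beta plus TNF-alpha plus IFN-gamma mixture; protective hits raise ATP signal compared with cytokine alone wells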
[4] = system: Streptococcus; experiment: GAS UMAA2166 growth inhibition – luminescence, BacTiterGlo, counter-screen for streptokinase expression inhibitor project, dose response (AID 1915); type: functional, organism-based;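 also: potency for reduction of bacterial viability or growth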
[5] = system: BJ; experiment: BJ-TERT-LT-ST fibroblast viability loss – cell-based, RAS-independent, luminescence, dose response (AID 1935); type: functional; conditions: Homo sapiens;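 also: BJ fibroblasts immortalized with TERT plus LT and ST oncogenes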
[6] = system: Streptococcus sp. 'group A'; experiment: Streptococcus pyogenes SK(-)GAS viability under kanamycin – luminescence, BacTiterGlo, confirmation, counter-screen for streptokinase expression inhibitor project, dose response (AID 1900); type: functional, organism-based
[7] = system: BJ; experiment: cells; type: functional, cell-based; conditions: Homo sapiens
[8] = system: Vero; experiment: mammalian cell viability reduction – secondary assay, cytotoxicity control for West Nile virus antiviral project, dose response (AID 1650); type: functional; conditions: Chlorocebus sabaeus
[9] = system: BJ; experiment: BJ-TERT fibroblast viability loss – cell-based, RAS-independent, luminescence, dose response (AID 1933); type: functional; conditions: Homo sapiens
[10] = viability loss in HepG2 hepatoma cells – cell-based, ATP luminescence, cherry-pick, activator set 2, cytotoxicity control, dose response (AID 1053143); type: functional
[11] = DRD fibroblast viability loss – cell-based, non-viral oncogenic, luminescence, dose response (AID 1934); type: functional; conditions: Homo sapiens
[12] = decrease of insulin promoter-GFP reporter – imaging, high-content screening, mouse beta cells (AID 1628); type: functional; conditions: MIN6
[13] = biological target: Heat shock protein HSP 90-alpha (Homo sapiens, UniProt P07900); type: functional, organism-based
[14] = MIN6 cell viability loss – mouse insulinoma, cytotoxicity control, dose response (AID 2122); type: functional;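 also: confirmatory high-throughput counterscreen run to flag cytotoxic compounds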
[15] = system: BJ; experiment: growth inhibition of engineered Ras-driven BJ cells – cell-based, alamar blue fluorescence, cherrypicked samples, dose response (AID 2631); type: functional; conditions: Homo sapiens;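 also: confirmatory dose-response assay in RAS-dependent BJ fibroblasts engineered with TERT, LT and ST, with cytotoxicity read by fluorescence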
[16] = biological target: Nonstructural protein 1 (Influenza A virus, UniProt Q194T2); type: functional, Influenza A virus (A/California/07/2009(H1N1))
[17] = Late stage assay provider results from the probe development effort to identify selective inhibitors of heat shock protein 90 (HSP90): Absorbance-based cell proliferation assay in SKBR3 cells.; type: functional; conditions: SK-BR-3
[18] = system: HEK293; experiment: cells; conditions: Homo sapiens
[19] = Late stage assay provider results from the probe development effort to identify selective inhibitors of heat shock protein 90 (HSP90): Absorbance-based cell proliferation assay in MCF7 cells.; type: functional
[20] = system: HEK293; experiment: cells; conditions: Homo sapiens; remark: listed apart in the source
[21] = off-target signal loss in HeLa-CEM21 co-culture – HeLa F-luc CTL cells, cherry-picked, counter-screen for HIV-1 Env fusion inhibitor project, dose response (AID 652040); type: functional, cell-based;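 also: potency for signal decrease marking cytotoxic or nonspecific inhibition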
[22] = viability loss in CEM21 cells – cell-based, CellTiter-Glo luminescence, cherry-picked, cytotoxicity control for viral fusion inhibitor project, dose response (AID 652042); type: functional;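 also: potency for signal decrease meaning cytotoxicity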
[23] = HIV-1 AD8 envelope cell-cell fusion blockers – cherry-pick, dose response (AID 652062); type: functional, cell-based;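 also: luciferase signal from cell-cell fusion driven by HIV-1 clade B AD8 Env; potency is for inhibitors of fusion seen as a drop in luminescence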
[24] = blockers of HIV-1 ZM109 envelope-driven cell-cell fusion – HeLa effector, CEM target cells, luciferase, cherry-pick, dose response (AID 652058); type: functional, cell-based;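 also: luciferase signal from HIV-1 Env mediated cell-cell fusion of effector and target cells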
[25] = blockers of HIV-1 envelope-mediated cell-cell fusion – cherry-pick, dose response (AID 652057); type: functional, cell-based
[26] = biological target: SUMO-activating enzyme (Homo sapiens, UniProt Q9UBT2); experiment: blockers of UBC9-mediated SUMO conjugation – biochemical, AlphaScreen, SUMOylation inhibitor project, confirmation (AID 2018); type: functional
[27] = biological target: Fructose-bisphosphate aldolase (Mycobacterium tuberculosis, UniProt P9WQA3); experiment: Fluorescence-based biochemical high throughput dose response assay for inhibitors of the fructose-bisphosphate aldolase (FBA) of M. tuberculosis.; type: functional
[28] = OVCAR8 cell viability loss – plate reader, dry powder samples, PAX8 project, dose response (AID 743197); type: functional, cell-based; conditions: OVCAR-8
[29] = IGROV1 cell killing – plate reader, dry powder samples, PAX8 inhibitor project, dose response (AID 743043); type: functional, cell-based; conditions: IGROV-1
[30] = A2780 cell killing – plate reader, dry powder samples, cytotoxicity control, dose response (AID 743046); type: functional, cell-based
[31] = CMV-driven luciferase expression suppression in HEK293 – cell-based, luminescence, dry powder, counter-screen for Pax8 inhibitor project, dose response (AID 743020); type: functional
[32] = biological target: Paired box protein Pax-8 (Homo sapiens, UniProt Q06710); experiment: PAX8 transcriptional activity inhibition in RMG-I – RMG-I cells, luciferase, cherry-pick, dose response (AID 687027); type: functional, cell-based;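 also: luciferase reporter driven by Pax8 target thyroperoxidase promoter measured by SteadyGlo luminescence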
[33] = OVCAR-3 cell viability loss – plate reader, dry powder samples, PAX8 inhibitor project, dose response (AID 743044); type: functional, cell-based
[34] = system: A549; experiment: viability loss in A549 cells – cell-based, plate reader, cherry-pick samples, cytotoxicity control, dose response (AID 687028); type: functional; conditions: Homo sapiens
[35] = biological target: 1-phosphatidylinositol 4,5-bisphosphate phosphodiesterase gamma-1 (Homo sapiens, UniProt P19174); experiment: Counterscreen for inhibitors of phospholipase C isozymes (PLC-B3): Fluorescence-based biochemical high throughput dose response assay to identify inhibitors of phospholipase C isozymes (PLC-gamma1).
[36] = biological target: 1-phosphatidylinositol 4,5-bisphosphate phosphodiesterase beta-3 (Homo sapiens, UniProt Q01970); experiment: Fluorescence-based biochemical high throughput dose response assay to identify inhibitors of phospholipase C isozymes (PLC-B3).
[37] = biological target: Kallikrein-7 (Homo sapiens, UniProt P49862); experiment: Fluorescence Intensity-based biochemical primary high throughput dose response assay to identify activators of kallikrein-7 (K7) zymogen.
[38] = optical artefact potency, substrate without enzyme – biochemical, fluorescence intensity, triplicate, artefact control for kallikrein-7 zymogen activator project, dose response (AID 720493)
[39] = cells; conditions: HEK293
[40] = cells
[41] = biological target: Potassium channel subfamily K member 9 (Homo sapiens, UniProt Q9NPC2); experiment: KCNK9 flux blockade, concentration-response – cell-based, FluxOR thallium flux, selectivity assay for TASK1 inhibitor project, SAR follow-up (AID 652211); type: functional;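 also: potency is for inhibitors of the channel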
[42] = biological target: Potassium channel subfamily K member 3 (Homo sapiens, UniProt O14649); experiment: inhibition of human KCNK3 channel flux – CHO cells, FluxOR thallium flux, SAR follow-up (AID 652212); type: functional
[43] = Late stage assay provider results from the probe development effort to identify inhibitors of the Plasmodium falciparum M17 Leucine Aminopeptidase (M17LAP): radiolabel-based cell-based dose response assay to identify compounds that inhibit P. falciparum growth in RBCs Set 2.; type: functional

Chain of SUMO-activating enzyme (Q9UBE0 whole entry): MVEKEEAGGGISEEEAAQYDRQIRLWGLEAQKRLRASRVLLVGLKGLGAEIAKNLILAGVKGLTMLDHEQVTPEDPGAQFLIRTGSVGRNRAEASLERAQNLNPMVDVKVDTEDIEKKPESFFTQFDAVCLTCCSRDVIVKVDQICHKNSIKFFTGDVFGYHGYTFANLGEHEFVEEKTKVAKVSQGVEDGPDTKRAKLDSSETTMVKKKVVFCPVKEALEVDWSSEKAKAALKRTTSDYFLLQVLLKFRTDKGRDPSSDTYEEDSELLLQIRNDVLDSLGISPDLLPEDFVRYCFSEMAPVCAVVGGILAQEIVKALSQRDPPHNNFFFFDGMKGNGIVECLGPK
Chain of SUMO-activating enzyme (Q9UBT2 whole entry): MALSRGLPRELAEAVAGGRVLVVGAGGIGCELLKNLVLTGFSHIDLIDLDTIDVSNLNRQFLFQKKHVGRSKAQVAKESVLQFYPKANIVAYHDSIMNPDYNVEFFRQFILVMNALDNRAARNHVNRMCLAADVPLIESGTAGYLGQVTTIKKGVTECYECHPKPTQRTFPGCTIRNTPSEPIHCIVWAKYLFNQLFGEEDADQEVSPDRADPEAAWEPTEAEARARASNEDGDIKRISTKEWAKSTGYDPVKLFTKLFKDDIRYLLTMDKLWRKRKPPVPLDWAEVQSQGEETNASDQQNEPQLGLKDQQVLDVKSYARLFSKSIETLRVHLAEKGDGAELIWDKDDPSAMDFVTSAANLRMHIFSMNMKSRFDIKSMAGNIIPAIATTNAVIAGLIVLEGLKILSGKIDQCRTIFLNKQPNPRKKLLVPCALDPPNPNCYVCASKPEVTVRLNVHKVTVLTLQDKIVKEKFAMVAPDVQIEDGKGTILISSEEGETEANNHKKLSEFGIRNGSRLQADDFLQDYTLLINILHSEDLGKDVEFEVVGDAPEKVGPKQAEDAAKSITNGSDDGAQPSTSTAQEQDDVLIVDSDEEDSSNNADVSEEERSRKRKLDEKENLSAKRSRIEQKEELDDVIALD
Chain of 1-phosphatidylinositol 4,5-bisphosphate phosphodiesterase beta-3 (Q01970 whole entry): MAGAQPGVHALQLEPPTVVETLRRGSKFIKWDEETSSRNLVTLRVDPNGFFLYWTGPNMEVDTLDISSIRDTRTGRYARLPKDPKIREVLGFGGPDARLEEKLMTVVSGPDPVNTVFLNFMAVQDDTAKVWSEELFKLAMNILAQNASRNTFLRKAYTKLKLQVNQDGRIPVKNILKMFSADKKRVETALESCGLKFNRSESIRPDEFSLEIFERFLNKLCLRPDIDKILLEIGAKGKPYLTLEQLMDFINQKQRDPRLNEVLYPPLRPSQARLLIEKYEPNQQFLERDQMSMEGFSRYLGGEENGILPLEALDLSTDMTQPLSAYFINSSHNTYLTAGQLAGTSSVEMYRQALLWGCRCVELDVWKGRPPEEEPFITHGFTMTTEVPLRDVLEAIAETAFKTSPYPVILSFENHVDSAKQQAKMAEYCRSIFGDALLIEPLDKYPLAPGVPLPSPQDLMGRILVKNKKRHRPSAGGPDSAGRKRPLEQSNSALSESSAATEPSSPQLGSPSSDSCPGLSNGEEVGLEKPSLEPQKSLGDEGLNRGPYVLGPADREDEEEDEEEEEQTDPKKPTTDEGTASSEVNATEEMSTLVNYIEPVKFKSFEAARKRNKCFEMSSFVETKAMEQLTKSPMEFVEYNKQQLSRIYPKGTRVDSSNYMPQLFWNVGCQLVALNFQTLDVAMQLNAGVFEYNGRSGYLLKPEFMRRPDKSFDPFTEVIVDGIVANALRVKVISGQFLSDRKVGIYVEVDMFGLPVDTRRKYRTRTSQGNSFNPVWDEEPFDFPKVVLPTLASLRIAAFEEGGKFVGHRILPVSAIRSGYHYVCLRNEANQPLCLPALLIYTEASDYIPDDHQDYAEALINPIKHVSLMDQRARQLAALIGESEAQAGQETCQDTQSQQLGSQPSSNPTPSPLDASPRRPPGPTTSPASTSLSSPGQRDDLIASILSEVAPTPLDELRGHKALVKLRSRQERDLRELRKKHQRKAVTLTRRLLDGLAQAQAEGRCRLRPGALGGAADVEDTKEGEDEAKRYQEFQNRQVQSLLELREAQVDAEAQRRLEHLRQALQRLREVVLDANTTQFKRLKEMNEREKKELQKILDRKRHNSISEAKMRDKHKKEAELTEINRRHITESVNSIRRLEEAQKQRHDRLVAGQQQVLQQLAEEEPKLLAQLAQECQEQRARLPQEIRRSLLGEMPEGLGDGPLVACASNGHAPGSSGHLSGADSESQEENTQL
Chain of Paired box protein Pax-8 (Q06710 whole entry): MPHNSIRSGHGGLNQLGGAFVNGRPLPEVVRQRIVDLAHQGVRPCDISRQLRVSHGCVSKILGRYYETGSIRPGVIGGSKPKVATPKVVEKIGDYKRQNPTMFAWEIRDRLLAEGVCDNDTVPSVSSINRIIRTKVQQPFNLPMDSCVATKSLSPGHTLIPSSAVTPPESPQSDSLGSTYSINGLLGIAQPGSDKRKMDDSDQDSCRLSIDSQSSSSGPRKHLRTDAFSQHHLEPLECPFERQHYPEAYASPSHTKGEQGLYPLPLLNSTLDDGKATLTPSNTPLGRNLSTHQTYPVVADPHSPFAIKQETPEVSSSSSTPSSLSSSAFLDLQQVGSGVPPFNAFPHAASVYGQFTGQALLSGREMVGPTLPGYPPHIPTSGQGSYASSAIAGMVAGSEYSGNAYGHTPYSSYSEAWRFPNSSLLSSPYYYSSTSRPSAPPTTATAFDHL
Chain of Fructose-bisphosphate aldolase (P9WQA3 whole entry): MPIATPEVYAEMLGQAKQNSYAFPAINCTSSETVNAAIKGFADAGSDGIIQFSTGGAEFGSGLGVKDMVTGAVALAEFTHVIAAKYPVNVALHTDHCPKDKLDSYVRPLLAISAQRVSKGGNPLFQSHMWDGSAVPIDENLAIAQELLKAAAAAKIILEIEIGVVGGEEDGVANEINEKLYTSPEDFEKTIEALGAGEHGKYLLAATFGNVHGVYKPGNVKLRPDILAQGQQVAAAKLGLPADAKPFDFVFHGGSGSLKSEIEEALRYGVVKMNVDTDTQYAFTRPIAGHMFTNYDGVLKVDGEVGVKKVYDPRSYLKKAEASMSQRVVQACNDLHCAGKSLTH
Chain of Potassium channel subfamily K member 9 (Q9NPC2 whole entry): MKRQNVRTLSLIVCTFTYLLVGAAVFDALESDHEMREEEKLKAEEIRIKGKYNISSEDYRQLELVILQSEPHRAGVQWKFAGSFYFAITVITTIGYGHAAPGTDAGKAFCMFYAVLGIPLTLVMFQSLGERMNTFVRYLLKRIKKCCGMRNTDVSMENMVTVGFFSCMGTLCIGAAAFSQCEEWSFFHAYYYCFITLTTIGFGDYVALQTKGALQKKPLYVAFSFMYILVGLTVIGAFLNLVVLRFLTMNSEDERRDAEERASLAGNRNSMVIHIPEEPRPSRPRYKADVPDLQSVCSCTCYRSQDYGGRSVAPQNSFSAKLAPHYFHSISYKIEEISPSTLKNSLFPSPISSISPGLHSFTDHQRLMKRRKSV
Chain of Nonstructural protein 1 (Q194T2 whole entry): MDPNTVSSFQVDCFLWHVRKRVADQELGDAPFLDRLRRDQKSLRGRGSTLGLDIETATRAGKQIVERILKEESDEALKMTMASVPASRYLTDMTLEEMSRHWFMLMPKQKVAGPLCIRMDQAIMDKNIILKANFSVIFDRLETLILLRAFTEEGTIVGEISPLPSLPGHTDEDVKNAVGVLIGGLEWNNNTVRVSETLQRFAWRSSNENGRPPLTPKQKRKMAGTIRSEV
Chain of 1-phosphatidylinositol 4,5-bisphosphate phosphodiesterase gamma-1 (P19174 whole entry): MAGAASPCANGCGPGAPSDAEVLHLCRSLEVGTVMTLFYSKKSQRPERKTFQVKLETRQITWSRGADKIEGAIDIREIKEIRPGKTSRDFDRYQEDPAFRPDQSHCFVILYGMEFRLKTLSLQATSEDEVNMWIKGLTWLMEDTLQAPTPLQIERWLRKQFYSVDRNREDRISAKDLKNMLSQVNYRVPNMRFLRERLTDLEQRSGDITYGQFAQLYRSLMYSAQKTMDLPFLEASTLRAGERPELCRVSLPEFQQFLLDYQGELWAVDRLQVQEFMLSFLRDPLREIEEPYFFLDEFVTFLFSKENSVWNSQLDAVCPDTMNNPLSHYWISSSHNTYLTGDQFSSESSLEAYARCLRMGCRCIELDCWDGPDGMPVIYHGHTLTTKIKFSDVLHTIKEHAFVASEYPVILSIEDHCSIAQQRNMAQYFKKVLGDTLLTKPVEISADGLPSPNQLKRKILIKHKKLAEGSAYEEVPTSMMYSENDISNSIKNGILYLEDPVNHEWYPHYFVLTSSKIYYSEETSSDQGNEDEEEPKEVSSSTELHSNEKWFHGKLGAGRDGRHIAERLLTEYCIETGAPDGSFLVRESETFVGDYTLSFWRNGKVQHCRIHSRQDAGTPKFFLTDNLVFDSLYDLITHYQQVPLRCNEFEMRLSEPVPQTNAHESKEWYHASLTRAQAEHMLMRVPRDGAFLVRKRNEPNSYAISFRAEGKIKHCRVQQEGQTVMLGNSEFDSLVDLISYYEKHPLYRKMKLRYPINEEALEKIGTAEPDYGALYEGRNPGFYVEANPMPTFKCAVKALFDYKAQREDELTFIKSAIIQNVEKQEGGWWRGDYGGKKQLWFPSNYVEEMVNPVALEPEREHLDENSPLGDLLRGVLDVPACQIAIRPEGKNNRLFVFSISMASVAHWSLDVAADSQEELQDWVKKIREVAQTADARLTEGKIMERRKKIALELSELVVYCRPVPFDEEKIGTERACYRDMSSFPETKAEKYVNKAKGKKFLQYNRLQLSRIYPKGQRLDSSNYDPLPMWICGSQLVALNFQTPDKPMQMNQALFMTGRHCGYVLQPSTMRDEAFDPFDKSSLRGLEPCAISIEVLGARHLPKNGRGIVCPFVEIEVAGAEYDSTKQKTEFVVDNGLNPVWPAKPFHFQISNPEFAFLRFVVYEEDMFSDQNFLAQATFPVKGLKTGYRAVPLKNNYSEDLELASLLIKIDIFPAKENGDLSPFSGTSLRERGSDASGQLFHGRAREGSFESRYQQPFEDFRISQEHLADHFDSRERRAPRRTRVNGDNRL

CC(C)(C)c1nnc(N/N=C/c2cc(Br)ccc2O)n(N)c1=O
EC50 [1]: 19.9 µM (active)
EC50 [2]: > 80 µM (inactive)
AC50 [3]: 0.859 µM (active)
EC50 [4]: 3.18 µM (active)
EC50 [5]: 0.706 µM (inconclusive)
EC50 [6]: 2.91 µM (active)
EC50 [7]: 3.69 µM (inconclusive)
CC50 [8]: 5 µM (active)
EC50 [9]: 0.681 µM (active)
AC50 [10]: 5.77 µM (active)
EC50 [11]: 1.01 µM (active)
IC50 [12]: 1.81 µM (active)
AC50 [13]: 5.57 µM (active)
IC50 [14]: 2.08 µM (active)
EC50 [15]: 1.24 µM (active)
IC50 [16]: 16.6 µM (active)

O=C(NCCc1ccc(F)cc1)c1coc(=O)c(Br)c1
IC50 [17]: 5.3 µM (active)
EC50 [18]: > 59.7 µM (inactive)
IC50 [19]: 2.1 µM (active)
EC50 [20]: > 59.7 µM (inactive)

Cc1ccc(C)c(OCC(=O)Nc2nonc2NC(=O)COc2cc(C)ccc2C)c1
AC50 [21]: 6.79 µM (active)
AC50 [22]: 25.4 µM (active)
AC50 [23]: 4.31 µM (active)
AC50 [24]: 1.4 µM (active)
AC50 [25]: 2.68 µM (active)
IC50 [26]: 45.4 µM (active)

COC(=O)C1=CN(Cc2ccc(F)cc2)C=C(C(=O)OC)C1c1cc(OC)c(OC)c(OC)c1
IC50 [27]: 1.65 µM (active)

C[C@@H]1CCCCO[C@H](CN(C)Cc2ccc(C(F)(F)F)cc2)[C@@H](C)CN([C@@H](C)CO)C(=O)c2cc(NC(=O)Nc3ccc(F)cc3)ccc2O1
AC50 [28]: 32.1 µM (active)
AC50 [29]: 43.6 µM (active)
AC50 [30]: 51.7 µM (active)
AC50 [31]: 35.7 µM (active)
AC50 [32]: 5.36 µM (active)
AC50 [33]: 21.4 µM (active)

CCN(c1ccccc1)S(=O)(=O)c1ccc(OC)c(NC(=O)C2CCC2)c1
AC50 [34]: 35.7 µM (active)

CC/C(NCC1CCCO1)=C1/C(=O)NC(=O)N(Cc2ccccc2)C1=O (stereo not drawn)
IC50 [35]: > 122 µM (inactive)
IC50 [36]: > 122 µM (inactive)

CCOC(=O)c1c(N)n(CCN2CCCCC2)c2nc3ccccc3nc12
EC50 [37]: 3.62 µM (active)
EC50 [38]: > 2.58 µM (active)

Cc1ccc2[nH]c3ccccc3c(=O)c2c1
AC50 [39]: 38.6 µM (active)
AC50 [40]: 7.34 µM (active)

Cc1cccc(C(=O)Nc2cccc(NC(=O)C3CCCCC3)c2)c1
IC50 [41]: 11.9 µM (active)
IC50 [42]: 0.017 µM (active)

O=C(NO)c1ccc2ccccc2c1
IC50 [43]: 15.7 µM (inactive)
